Key:
Format in all cases: cell-based, human
TLR3 = assay: qRT-PCR RNA expression of TLR3 gene in LS174T cells exposed to HMO; settings: 48 hours; for fold change in RNA expression of TLR3 relative to Control: normalized to GUSB, P<0.05
Protocol: (§1) The ability of HMOs to increase expression of mucosal innate immune receptors and cytokines was tested by exposing LS174T human colorectal cancer cells, which are a model of human intestinal goblet cells, to either of the HMOs, 2′-FL or LNnT. The LS174T cells were obtained from the American Type Culture Collection (ATCC). LS174T cells were maintained in minimum essential medium supplemented with 10% Fetalplex, 1.5 g/L of Na2CO3, 10 ml/L penicillin G-streptomycin solution at 37° C. in 5% CO2. Cells were plated at 0.2×10^5 cells/ml/well in 24-well plates and allowed to attach for 24-30 hours. Solutions containing each HMO were prepared by resuspending lyophilized HMO in cell culture grade water to a 10% solution and filter-sterilizing before diluting to the appropriate level in culture media. A solution free of carbohydrates (i.e., fresh medium alone, Control) was also prepared using the same procedure. After preparation of the HMO-containing solutions, the LS174T cell cultures were rinsed with 1×HBSS and then incubated in 0.5 ml of fresh medium alone (Control) or containing 0.1 mg/mL or 1 mg/mL of 2′-FL (2FL), LNnT (LNnT), fucose (FUCOSE), or lactose (LAC) for 48 hours. Cells were harvested at the end of incubation with 1 ml of TRIzol to obtain RNA samples. RNA expression levels of the genes for the mucosal innate immune receptor proteins TLR3, TLR4, CCR2 and the cytokine IL1B were determined by quantitative reverse transcriptase polymerase chain reaction (qRT-PCR) of RNA samples from the cells. Fold change (Fold induction) in the RNA expression levels of the genes for the receptor proteins and the cytokine was normalized based on the change in GUSB transcript expression. Reported fold changes are the mean+/−[…]. Treatments with statistically significant differences in fold expression (P<0.05) are reported with different letters above the bars.

TLR4 = assay: qRT-PCR RNA expression of TLR4 gene in LS174T cells exposed to HMO; settings: 48 hours; for fold change in RNA expression of TLR4 relative to Control: normalized to GUSB, P<0.05
Protocol: as §1

CCR2 = assay: qRT-PCR RNA expression of CCR2 gene in LS174T cells exposed to HMO; settings: 48 hours; for fold change in RNA expression of CCR2 relative to Control: normalized to GUSB, P<0.05
Protocol: as §1

IL1B = assay: qRT-PCR RNA expression of cytokine IL1B gene in LS174T cells exposed to HMO; settings: 1 mg/mL, 48 hours, normalized to GUSB, P<0.05
Protocol: The ability of HMOs to increase expression of mucosal innate immune receptors and cytokines was tested by exposing LS174T human colorectal cancer cells, which are a model of human intestinal goblet cells, to either of the HMOs, 2′-FL or LNnT. The LS174T cells were obtained from the American Type Culture Collection (ATCC). LS174T cells were maintained in minimum essential medium supplemented with 10% Fetalplex, 1.5 g/L of Na2CO3, 10 ml/L penicillin G-streptomycin solution at 37° C. in 5% CO2. Cells were plated at 0.2×10^5 cells/ml/well in 24-well plates and allowed to attach for 24-30 hours. Solutions containing each HMO were prepared by resuspending lyophilized HMO in cell culture grade water to a 10% solution and filter-sterilizing before diluting to the appropriate level in culture media. A solution free of carbohydrates (i.e., fresh medium alone, Control) was also prepared using the same procedure. […] RNA expression levels of the genes for the mucosal innate immune receptor proteins TLR3, TLR4, CCR2 and the cytokine IL1B were determined by quantitative reverse transcriptase polymerase chain reaction (qRT-PCR) of RNA samples from the cells. […]

MUC2 = assay: qRT-PCR RNA expression of MUC2 gene in LS174T cells exposed to HMO; settings: 0.1 mg/mL, 48 hours

Compound	increase in TLR3 expression, 0.1 mg/mL treatment compared with 1 mg/mL treatment (TLR3; 0.1 mg/mL vs 1 mg/mL)	fold change in RNA expression of TLR3 relative to Control (TLR3; 0.1 mg/mL)	fold change in RNA expression of TLR3 relative to Control (TLR3; 1 mg/mL)	increase in TLR4 expression, 0.1 mg/mL treatment compared with 1 mg/mL treatment (TLR4; 0.1 mg/mL vs 1 mg/mL)	fold change in RNA expression of TLR4 relative to Control (TLR4; 0.1 mg/mL)	fold change in RNA expression of TLR4 relative to Control (TLR4; 1 mg/mL)	increase in CCR2 expression, 0.1 mg/mL treatment compared with 1 mg/mL treatment (CCR2; 0.1 mg/mL vs 1 mg/mL)	fold change in RNA expression of CCR2 relative to Control (CCR2; 0.1 mg/mL)	fold change in RNA expression of CCR2 relative to Control (CCR2; 1 mg/mL)	fold change in RNA expression of IL1B relative to Control (IL1B)	MUC2 gene expression (MUC2)
2′-fucosyllactose [2′-FL]	greater increase in expression in response to the 0.1 mg/mL 2′-FL treatment than the 1 mg/mL 2′-FL treatment	statistically significant fold change	statistically significant fold change	greater increase in expression in response to the 0.1 mg/mL 2′-FL treatment than the 1 mg/mL 2′-FL treatment	statistically significant fold change	statistically significant fold change	greater increase in expression in response to the 0.1 mg/mL 2′-FL treatment than the 1 mg/mL 2′-FL treatment	statistically significant fold change	statistically significant fold change	statistically significant fold change	significant increase
CC(=O)N[C@H]1[C@H](O[C@H]2[C@@H](O)[C@@H](CO)O[C@@H](O[C@H]3[C@H](O)[C@@H](O)C(O)O[C@@H]3CO)[C@@H]2O)O[C@H](CO)[C@@H](O[C@@H]2O[C@H](CO)[C@H](O)[C@H](O)[C@H]2O)[C@@H]1O (mixture of isomers) [LNnT, lacto-N-neotetraose]			significant change in expression			significant change in expression		significantly enhanced	significant change in expression	significant change in expression	

Reference: patent publication US10792294B2, “Methods for enhancing mucosal innate immune responses to and/or detection of pathogens using human milk oligosaccharides” (ABBOTT LABORATORIES, priority 2014, dated 2020)
